Columns and labels:
Mo1043 cells (CLL) = test: Cell viability assay (CellTiter-Glo), Mo1043; assay type: cell-based; conditions: 72 h, n = 3
EGFR = target: T1, EGFR (Homo sapiens, UniProt P00533); test: NanoBRET in-cell target engagement, EGFR; assay type: binding; conditions: HEK296T cells, 1 h incubation, average of duplicates
T1 construct: host or cells: HEK296T (so in the source)
Experimental: (§1) In-cell target engagement was performed at Reaction Biology Corporation, using NanoBRET technology. Very briefly, HEK296T cells were transfected and treated in duplicate with JS25 for 1 h of incubation. The compound was diluted 10 times with 3-fold dilution, starting at 1 μM. Curve fits were performed only when the % NanoBret signal at the highest concentration of compounds was less than 55%. The IC50 values were determined using GraphPad Prism 8 ([…]).

TEC = target: T2, TEC (Homo sapiens, UniProt P42680); test: NanoBRET in-cell target engagement, TEC; assay type: binding
T2 construct: host or cells: HEK296T (so in the source)
T2 sequence (P42680 1-631): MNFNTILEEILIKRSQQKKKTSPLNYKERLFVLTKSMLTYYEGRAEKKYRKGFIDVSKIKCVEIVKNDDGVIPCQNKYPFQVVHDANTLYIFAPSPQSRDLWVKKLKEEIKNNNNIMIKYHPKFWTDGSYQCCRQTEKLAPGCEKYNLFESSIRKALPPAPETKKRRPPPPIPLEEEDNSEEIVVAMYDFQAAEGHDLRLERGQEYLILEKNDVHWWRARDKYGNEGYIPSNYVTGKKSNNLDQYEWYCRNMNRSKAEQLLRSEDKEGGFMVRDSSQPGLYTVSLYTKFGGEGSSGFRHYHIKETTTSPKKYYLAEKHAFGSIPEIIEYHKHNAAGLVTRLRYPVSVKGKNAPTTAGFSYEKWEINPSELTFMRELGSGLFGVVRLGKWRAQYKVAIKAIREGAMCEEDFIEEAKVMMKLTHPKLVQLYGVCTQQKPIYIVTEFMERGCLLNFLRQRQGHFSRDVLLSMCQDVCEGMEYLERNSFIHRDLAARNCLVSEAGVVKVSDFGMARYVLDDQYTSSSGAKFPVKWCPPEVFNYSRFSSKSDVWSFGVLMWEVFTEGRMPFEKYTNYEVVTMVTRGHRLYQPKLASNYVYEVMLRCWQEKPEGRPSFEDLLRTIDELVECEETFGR
Experimental: as §1

BTK = BTK (Homo sapiens, UniProt Q06187); test: BTK inhibition kinetics (ADP-Glo kinase assay); assay type: biochemical; parameters: purchased Promega Corporation V2941
HBEC-5i cells = test: Cell viability assay (CellTiter-Glo), HBEC-5i; assay type: cell-based; conditions: Homo sapiens, 72 h, n = 3
Experimental: (§2) Cells were inoculated at a density of 5000 cells/well. Serially diluted compounds (starting at 50 μM) were added 24 h later. The assay was performed in triplicates. After 72 h of incubation, cellular viability was assessed by CellTiter-Glo (Promega) according to the manufacturer’s instructions. The values were normalized with the vehicle (DMSO), and the IC50 was calculated using GraphPad Prism 8.
Human cerebral microvascular endothelial cells (HBEC-5i) were cultured as a monolayer on attachment factor protein solution (AF)-coated T-flasks (Gibco), using DMEM/F12 medium (Gibco), supplemented with 10% FBS, 1% penicillin/streptomycin, and 40.0 μg/mL endothelial cell growth supplement (ECGS, Sigma), according to the manufacturer’s instructions. The capacity of the compounds to cross the brain–blood barrier (BBB) was evaluated using an in vitro HBEC-5i cell model, as previously described.[29] Samples from the apical and basolateral sides were collected, and fluorescence intensity was measured using a Varioskan LUX multimode microplate reader. The retention was considered the difference between the initial fluorescence of compounds (100%) and the aggregated apical and basolateral fluorescence.

ITK = target: T3, ITK (Homo sapiens, UniProt Q08881); test: NanoBRET in-cell target engagement, ITK; assay type: binding
T3 construct: host or cells: HEK296T (so in the source)
T3 sequence (Q08881 1-620): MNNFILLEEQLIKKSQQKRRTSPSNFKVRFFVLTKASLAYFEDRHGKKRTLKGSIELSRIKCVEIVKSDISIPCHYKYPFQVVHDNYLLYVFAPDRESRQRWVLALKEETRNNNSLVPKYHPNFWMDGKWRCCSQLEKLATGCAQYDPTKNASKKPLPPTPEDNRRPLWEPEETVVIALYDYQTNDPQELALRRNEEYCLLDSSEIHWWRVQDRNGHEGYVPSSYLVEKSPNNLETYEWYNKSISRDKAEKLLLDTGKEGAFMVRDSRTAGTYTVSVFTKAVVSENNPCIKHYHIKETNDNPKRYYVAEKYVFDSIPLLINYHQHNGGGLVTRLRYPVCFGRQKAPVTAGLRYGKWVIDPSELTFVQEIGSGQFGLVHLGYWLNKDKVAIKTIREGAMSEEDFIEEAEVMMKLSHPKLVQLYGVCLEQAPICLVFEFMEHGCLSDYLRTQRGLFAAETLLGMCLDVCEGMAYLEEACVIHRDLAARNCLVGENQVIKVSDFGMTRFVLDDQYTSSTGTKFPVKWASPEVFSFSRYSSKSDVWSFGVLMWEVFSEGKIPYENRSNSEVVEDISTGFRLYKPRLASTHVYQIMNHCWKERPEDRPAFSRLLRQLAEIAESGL
Experimental: as §1

DoHH-2 cells (DLBCL) = test: Cell viability assay (CellTiter-Glo), DoHH-2; assay type: cell-based; conditions: Homo sapiens, 72 h, n = 3
Experimental: (§3) All cell lines were purchased from ATCC, except for DoHH-2 cells that were obtained from DSMZ. Cells were cultivated in complete DMEM supplemented with 10% (vol/vol) FBS (Gibco) and 1% of penicillin/streptomycin (Gibco). The cells were grown in a humidified atmosphere of 5% CO2 at 37°C, with the medium changed every other day.
as §2

HL-60 cells (APML) = test: Cell viability assay (CellTiter-Glo), HL-60; assay type: cell-based; conditions: Homo sapiens, 72 h, n = 3
Experimental: as §3, §2

[1] = HEK296T cells, 1 h incubation, average of duplicates
[2] = BTK preincubated with inhibitor 2–60 min, ATP 50 μM

Sequence of BTK (Q06187 whole entry): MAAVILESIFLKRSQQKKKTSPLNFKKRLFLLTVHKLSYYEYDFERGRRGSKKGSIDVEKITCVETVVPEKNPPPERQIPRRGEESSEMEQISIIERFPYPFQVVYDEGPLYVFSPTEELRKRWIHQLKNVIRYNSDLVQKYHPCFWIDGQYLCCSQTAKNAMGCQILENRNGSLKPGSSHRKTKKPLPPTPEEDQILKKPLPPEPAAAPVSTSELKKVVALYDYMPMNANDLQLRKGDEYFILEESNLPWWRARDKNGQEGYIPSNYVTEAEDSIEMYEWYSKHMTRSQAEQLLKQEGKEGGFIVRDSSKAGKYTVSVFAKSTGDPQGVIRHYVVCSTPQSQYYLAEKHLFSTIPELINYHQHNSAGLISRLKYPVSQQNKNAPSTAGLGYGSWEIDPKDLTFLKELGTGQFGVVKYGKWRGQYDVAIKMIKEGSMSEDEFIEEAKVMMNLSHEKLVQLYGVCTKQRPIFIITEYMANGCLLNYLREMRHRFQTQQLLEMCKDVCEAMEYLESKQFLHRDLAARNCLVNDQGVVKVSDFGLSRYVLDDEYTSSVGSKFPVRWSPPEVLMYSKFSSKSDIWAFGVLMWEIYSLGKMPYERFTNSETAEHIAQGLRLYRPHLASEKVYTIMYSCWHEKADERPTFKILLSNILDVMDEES
T1 sequence (P00533 25-1210): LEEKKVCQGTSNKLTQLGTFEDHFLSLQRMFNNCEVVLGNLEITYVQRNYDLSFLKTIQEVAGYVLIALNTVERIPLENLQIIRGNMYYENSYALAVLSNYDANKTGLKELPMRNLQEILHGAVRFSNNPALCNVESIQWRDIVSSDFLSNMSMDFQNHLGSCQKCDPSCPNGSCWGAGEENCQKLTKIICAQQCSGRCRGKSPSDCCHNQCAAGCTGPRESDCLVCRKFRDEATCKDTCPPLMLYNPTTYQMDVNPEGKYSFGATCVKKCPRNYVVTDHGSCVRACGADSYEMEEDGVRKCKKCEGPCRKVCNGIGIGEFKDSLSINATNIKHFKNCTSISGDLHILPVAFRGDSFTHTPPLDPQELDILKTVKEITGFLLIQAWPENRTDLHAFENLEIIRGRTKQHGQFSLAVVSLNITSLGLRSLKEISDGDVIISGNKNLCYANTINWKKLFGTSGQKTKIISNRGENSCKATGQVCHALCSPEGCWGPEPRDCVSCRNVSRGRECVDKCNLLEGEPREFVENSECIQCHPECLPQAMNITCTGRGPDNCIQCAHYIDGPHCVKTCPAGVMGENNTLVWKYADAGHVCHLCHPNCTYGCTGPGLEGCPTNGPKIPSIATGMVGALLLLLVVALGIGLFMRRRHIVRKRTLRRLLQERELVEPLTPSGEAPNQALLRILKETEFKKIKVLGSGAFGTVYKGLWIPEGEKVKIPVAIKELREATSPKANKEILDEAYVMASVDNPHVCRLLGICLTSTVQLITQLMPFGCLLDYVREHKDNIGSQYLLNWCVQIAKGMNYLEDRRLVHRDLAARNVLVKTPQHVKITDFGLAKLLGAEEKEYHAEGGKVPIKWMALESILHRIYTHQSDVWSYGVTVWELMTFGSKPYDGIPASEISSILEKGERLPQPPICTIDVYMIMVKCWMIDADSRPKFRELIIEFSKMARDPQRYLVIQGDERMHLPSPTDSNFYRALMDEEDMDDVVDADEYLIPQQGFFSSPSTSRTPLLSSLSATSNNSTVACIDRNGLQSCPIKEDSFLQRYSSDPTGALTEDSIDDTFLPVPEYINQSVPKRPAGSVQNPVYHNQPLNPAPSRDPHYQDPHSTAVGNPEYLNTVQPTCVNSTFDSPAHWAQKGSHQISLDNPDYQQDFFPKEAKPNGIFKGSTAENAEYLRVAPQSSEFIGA

- IC50 (EGFR): > 3000 nM
- selectivity for BTK relative to TEC (TEC): ~8 fold
- IC50 (TEC; [1]): 220 nM
- selectivity (kinase/BTK), TEC (TEC; IC50 kinase/IC50 BTK): 7.7
- increase in the rate of protein inactivation compared to ibrutinib, acalabrutinib and BMX-IN-1 (BTK): 8–200 fold
- increased rate of inactivation (kinact/KI) relative to BMX-IN-1 (BTK): ~18 fold
- increased rate of inactivation (kinact/KI) relative to acalabrutinib (BTK): ~200 fold
- increased rate of inactivation (kinact/KI) relative to ibrutinib (BTK): approximately 8 fold
- kinact of JS25, fold faster compared with ibrutinib, acalabrutinib and BMX-IN-1 (BTK): 10 fold
- Ki (BTK; [2]): 0.77 ± 0.06 nM
- kinact (BTK; [2]): 0.00668 s⁻¹
- kinact/KI (BTK; [2]): 8.72e+06 ± 1.02e+06 M⁻¹ s⁻¹
- selectivity for BTK relative to ITK (ITK): 15 fold
- IC50 (ITK; [1]): 440 nM
- selectivity (kinase/BTK), ITK (ITK; IC50 kinase/IC50 BTK): 15.4
- IC50 (HL-60 cells (APML)): 1950 nM
Structure (SMILES): C=CC(=O)Nc1cc(C)cc(-n2c(=O)ccc3cnc4ccc(-c5ccc(NS(C)(=O)=O)cc5)cc4c32)c1 [JS25]
- IC50 (Mo1043 cells (CLL)): 3400 ± 10 nM
- IC50 (HBEC-5i cells): 23400 ± 980 nM
- IC50 (DoHH-2 cells (DLBCL)): 520 ± 20 nM
